In test [1] the test system is Staphylococcus aureus. Kind of test: Antibiofilm activity against methicillin-resistant Staphylococcus aureus BAA-44 at 100 uM after 24 hrs by crystal violet staining based assay. It counts as functional. Conditions: BAA-44, 24 h.
The subject of test [2] is Pseudomonas aeruginosa. Kind of test: Inhibition of Pseudomonas aeruginosa MexAB-Oprm assessed as potentiation of ciprofloxacin-induced antibacterial activity at 50 ug/ml (reference value: 16 ug/ml).
The subject of test [3] is Pseudomonas aeruginosa. Kind of test: Inhibition of Pseudomonas aeruginosa MexAB-Oprm assessed as potentiation of levofloxacin-induced antibacterial activity at 50 ug/ml (reference value: 16 ug/ml).
Test [4] has as its target T1, Quinolone resistance protein NorA (Staphylococcus aureus) (UniProt P0A0J7).
T1 sequence (whole entry): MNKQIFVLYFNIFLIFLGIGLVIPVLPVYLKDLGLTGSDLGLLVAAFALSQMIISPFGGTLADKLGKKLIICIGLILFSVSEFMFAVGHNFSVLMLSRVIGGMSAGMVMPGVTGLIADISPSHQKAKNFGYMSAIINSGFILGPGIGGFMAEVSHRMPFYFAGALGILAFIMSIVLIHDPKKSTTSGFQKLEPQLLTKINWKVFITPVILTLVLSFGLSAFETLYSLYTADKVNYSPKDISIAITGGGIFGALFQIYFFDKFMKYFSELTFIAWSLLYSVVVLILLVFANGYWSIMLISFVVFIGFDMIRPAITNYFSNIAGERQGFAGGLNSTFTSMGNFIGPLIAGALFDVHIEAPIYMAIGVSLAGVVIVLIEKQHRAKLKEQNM
As to the kind of experiment: Inhibition of Staphylococcus aureus 1199B NorA assessed as potentiation of ciprofloxacin-induced antibacterial activity by measuring fold reduction in ciprofloxacin MIC at 12.5 to 25 uM.

For test [5], the system named is Staphylococcus aureus. Kind of test: Inhibition of biofilm formation in Staphylococcus aureus ATCC 29213 at 1.5 ug/ml after 24 hrs by MTT assay. The test is classed as functional. The following applies: ATCC 29213, 24 h. Background: Tetrazolium dyes change colour on reduction, which living cells bring about.
Test [6] has as its system Staphylococcus aureus. Kind of test: Inhibition of biofilm formation in Staphylococcus aureus ATCC 25923 at 1.5 ug/ml after 24 hrs by MTT assay. The test is classed as functional. The following applies: ATCC 25923, 24 h.
Test [7] relates to Staphylococcus aureus. Kind of test: Inhibition of biofilm formation in Staphylococcus aureus ATCC 657 at 1.5 ug/ml after 24 hrs by MTT assay. It counts as functional. Conditions: ATCC 657, 24 h.
The subject of test [8] is Staphylococcus aureus. As to the kind of experiment: Inhibition of biofilm formation in Staphylococcus aureus ATCC 702 at 1.5 ug/ml after 24 hrs by MTT assay. The test is classed as functional. The following applies: ATCC 702, 24 h.
Test [9] deals with Staphylococcus epidermidis. As to the kind of experiment: Inhibition of biofilm formation in Staphylococcus epidermidis DSM 3269 at 1.5 ug/ml after 24 hrs by MTT assay. The test is classed as functional. The following applies: DSM 3269, 24 h.
The subject of test [10] is Staphylococcus epidermidis. Kind of test: Inhibition of biofilm formation in Staphylococcus epidermidis RP62A at 1.5 ug/ml after 24 hrs by MTT assay. The test is classed as functional.
The test system of test [11] is Escherichia coli. As to the kind of experiment: Antibacterial activity against multi drug-resistant Escherichia coli KG4 after 24 hrs by serial dilution method. Conditions: KG4, 24 h. The test is classed as functional.
The test system of test [12] is Escherichia coli. As to the kind of experiment: Antibacterial activity against multi drug-resistant Escherichia coli KG1 after 24 hrs by serial dilution method. The following applies: KG1, 24 h. The test is classed as functional.
For test [13], the system named is Escherichia coli. As to the kind of experiment: Antibacterial activity against multi drug-resistant Escherichia coli EM5 mutant after 24 hrs by serial dilution method. The test is classed as functional.
The test system of test [14] is Escherichia coli. Kind of test: Antibacterial activity against multi drug-resistant Escherichia coli EM7 mutant after 24 hrs by serial dilution method. The test is classed as functional.
Test [15] relates to Escherichia coli. Kind of test: Antibacterial activity against multi drug-sensitive Escherichia coli MTCC 739 after 24 hrs by serial dilution method. The test is classed as functional. The following applies: MTCC 739, 24 h.
For test [16], the system named is Escherichia coli. Kind of test: Potentiation of tetracycline induced-antimicrobial activity against Escherichia coli assessed as fold reduction in tetracycline MIC at 25 ug/ml after 24 hrs by broth checkerboard method. It counts as functional.
Test [17] deals with Staphylococcus epidermidis. Kind of test: Antibacterial activity against planktonic Staphylococcus epidermidis RP62A after 24 hrs by broth microdilution method. It counts as functional.
Test [18] relates to Staphylococcus aureus. Kind of test: Antibacterial activity against planktonic Staphylococcus aureus ATCC 29213 after 24 hrs by broth microdilution method. It counts as functional. The following applies: ATCC 29213, 24 h. On the technique in general: In broth dilution the organism is exposed to a series of concentrations in liquid medium.
The subject of test [19] is Staphylococcus aureus. Kind of test: Antibacterial activity against planktonic Staphylococcus aureus ATCC 43866 after 24 hrs by broth microdilution method. It counts as functional. Conditions: ATCC 43866, 24 h.
Test [20] concerns Pseudomonas aeruginosa. Kind of test: Antimicrobial activity against Pseudomonas aeruginosa. It counts as functional.
Test [21] concerns Escherichia coli. Kind of test: Antimicrobial activity against Escherichia coli. It counts as functional.
In a further test the test system is Enterobacter. Kind of test: Antimicrobial activity against Enterobacter. It counts as functional.
Test [22] can be described thus: Inhibition of Escherichia coli PBP2.
Test [23] concerns Staphylococcus aureus. As to the kind of experiment: Antibiofilm activity against methicillin-resistant Staphylococcus aureus BAA-44 after 24 hrs by crystal violet staining based assay. The test is classed as functional. The following applies: BAA-44, 24 h.
The test system of test [24] is Staphylococcus aureus. As to the kind of experiment: Antibacterial activity against Staphylococcus aureus ATCC 25923 after 24 hrs by broth microdilution method. The test is classed as functional. The following applies: ATCC 25923, 24 h.
In test [25] the test system is Staphylococcus aureus. As to the kind of experiment: Antibacterial activity against Staphylococcus aureus 1199B after 24 hrs by broth microdilution method. It counts as functional.
The target of test [26] is T1, Quinolone resistance protein NorA (Staphylococcus aureus). Kind of test: Inhibition of Staphylococcus aureus 1199B NorA assessed as potentiation of ciprofloxacin-induced antibacterial activity at 32 ug/ml after 24 hrs (reference value: 16 ug/ml).

Converted amounts (≈) assume the structure as drawn. Where a SMILES comes first, the peptide text is derived from it. The star is where a group is joined. βNA = c1ccc2cc(N*)ccc2c1

As a reminder, the inhibition is how much of the control response was suppressed. Read a high inhibition as a strong effect. As to `CCCCCc1ccc(/C=C(\C)Cn2cc(CCCCCc3c[nH]c(N)n3)nn2)cc1`, the inhibition at 100 µM in the test on Staphylococcus aureus [1] was > 94%.
For the compound `N=C(N)NCCC[C@H](NC(=O)[C@@H](N)Cc1ccccc1)C(=O)Nc1ccc2ccccc2c1` (H-Phe-Arg-βNA), the MIC in the test on Pseudomonas aeruginosa [2] and in the test with Pseudomonas aeruginosa [3] was 2 µg/mL in each case.
With `COc1cc(CNC(=O)CCCC/C=C/C(C)C)ccc1O`, in test [4], the fold change (FC) was in the range of 2 to 4.
On to `O=C(c1cc(Br)cc(Br)c1O)c1[nH]c(Br)c(Br)c1Br`, for which the inhibition at 1.5 µg/mL (in the test with Staphylococcus aureus [5]; in the test on Staphylococcus aureus [6]; in the test with Staphylococcus aureus [7]; in the test on Staphylococcus aureus [8]; in test [9]; in test [10]) was 68.5 to 100% in each case.
Take `O=C(c1cc(Br)ccc1O)c1[nH]c(Br)c(Br)c1Br`: the inhibition at 1.5 µg/mL (in the test on Staphylococcus aureus [5]; with Staphylococcus aureus [6]; with Staphylococcus aureus [7]; in the test with Staphylococcus aureus [8]; in test [9]; in test [10]) was > 60% throughout.
With `O=C1CC[C@H](O)c2ccccc21` [(-)-4-HYDROXY-ALPHA-TETRALONE], the MIC in the test with Escherichia coli [11], in the test with Escherichia coli [12], in the test on Escherichia coli [13], with Escherichia coli [14] and against Escherichia coli [15] was 250 to 1000 µg/mL (≈ 1540 to 6170 µM) in each case. Further, the “fold change (FC)” value in the test on Escherichia coli [16] came to 4.
Take `Cc1nn(C)c([N-]C(=O)c2ccc(Cl)cc2Cl)c1[N+]#N`: the MIC (in test [17]; in the test on Staphylococcus aureus [18]; against Staphylococcus aureus [19]) was 1.5 to 12.5 µg/mL (≈ 4.84 to 40.3 µM) throughout.
In the case of `CCCCCCCCCCCCCCCC(=O)O[C@H]1CCC(=O)c2ccccc21` [4-O-PALMITOYL-ALPHATETRALONE], the MIC against Escherichia coli [11], with Escherichia coli [12], with Escherichia coli [13], in the test on Escherichia coli [14] and with Escherichia coli [15] was 250 to 1000 µg/mL (≈ 624 to 2500 µM) throughout.
A word on the IC50: it is the point on the concentration scale where inhibition reaches its midpoint. Take `O=C(NNC(=O)[C@@H]1CC[C@@H]2CN1C(=O)N2OS(=O)(=O)[O-])C1CNC1.[Na+]`: the MIC in the test on Pseudomonas aeruginosa [20], with Escherichia coli [21] and against Enterobacter was ≤ 2 µg/mL in each case. The IC50 in test [22] stood at 3.6 µM.
For `O=C(NOC1CCNC1)[C@@H]1CC[C@@H]2CN1C(=O)N2OS(=O)(=O)[O-].[Na+]` (stereo not given in full), the MIC against Pseudomonas aeruginosa [20], against Escherichia coli [21] and with Enterobacter was ≤ 2 µg/mL throughout. The IC50 in test [22] turned out to be 16 µM.
`O=C(/C=C/c1ccccc1)O[C@H]1CCC(=O)c2ccccc21`: the MIC in the test on Escherichia coli [11], against Escherichia coli [12], in the test with Escherichia coli [13], in the test on Escherichia coli [14] and against Escherichia coli [15] was 250 to 1000 µg/mL (≈ 855 to 3420 µM) in each case.
With `O=C(c1cc(Br)ccc1O)c1[nH]c(Cl)c(Br)c1Br`, the inhibition at 1.5 µg/mL (with Staphylococcus aureus [5]; in the test on Staphylococcus aureus [6]; in the test with Staphylococcus aureus [7]; in the test on Staphylococcus aureus [8]; in test [9]; in test [10]) was > 60% in each case.
As for `CCCCOc1cc(Br)cc(/C=C(\C)Cn2cc(CCCCCc3c[nH]c(N)n3)nn2)c1F`, the inhibition at 100 µM in the test with Staphylococcus aureus [1] is > 94%. For the same compound, the midpoint of inhibition in the test on Staphylococcus aureus [23], the IC50, lay at 4.5 µM.
`O=C(O[C@H]1CCC(=O)c2ccccc21)c1ccccc1` [4-O-BENZOYL-ALPHA-TETRALONE]: the MIC in the test with Escherichia coli [11], in the test on Escherichia coli [12], in the test on Escherichia coli [13], against Escherichia coli [14] and against Escherichia coli [15] was 250 to 1000 µg/mL (≈ 939 to 3760 µM) throughout.
For the compound `O=C(NC(C(=O)O)c1c[nH]c2ccc(Br)cc12)c1c[nH]c2ccc(Br)cc12` (stereo not given), the MIC is > 32 µg/mL against Staphylococcus aureus [24], > 32 µg/mL against Staphylococcus aureus [25] and 4 µg/mL in test [26].
As for `CCCCc1ccc(/C=C(\C)Cn2cc(CCCCCc3c[nH]c(N)n3)nn2)cc1`, the inhibition at 100 µM in the test on Staphylococcus aureus [1] was > 94%.
